The source of these data is ChEMBL document CHEMBL4483862, “Open-source discovery of chemical leads for next-generation chemoprotective antimalarials” (2018).

In the test the test system is Plasmodium berghei. In words: Luciferase/luciferin-expressing antifolate-resistant parasites were used to infect a culture of HepG2 cells that were pre-incubated with compounds. Infected hepatocytes emit light due to the luciferase reaction. Assay results are presented as the percent inhibition of light emission compared to control. […]. The settings on record: sporozoite; for IC50: read-out: LUCIFERASE INFECTION ASSAY - IC50; for IC90: read-out: LUCIFERASE INFECTION ASSAY - IC90. In kind it is functional.

For the compound `C=C(C)CC(NCc1ccco1)c1ccc(OC)cc1` (stereo not given), the IC50 was found to be 8.94 µM and the IC90 was greater than 12.2 µM.

For `CC1CCCC(C)N1C(=O)Nc1cccc(Cl)c1` (stereo not given), the IC50 is greater than 12.4 µM and the IC90 is greater than 12.4 µM.

Regarding `CCOC(=O)c1sc(NC(=O)c2ccc(C)s2)cc1C`, the IC50 is greater than 10 µM and the IC90 was greater than 10 µM.

`Cc1cc2nc(NC3=NCN(Cc4cccnc4)CN3)nc(C)c2cc1C`: the IC50 is greater than 9.13 µM and the IC90 is greater than 9.13 µM.

For `Cc1nn2c(NCCN(C)C)cc(C(C)C)nc2c1-c1ccccc1`, the IC50 is greater than 9.78 µM and the IC90 is greater than 9.78 µM.

As for `Fc1ccc(NC(=S)NN=C2c3ccccc3-c3ccccc32)c(F)c1`, the IC50 was greater than 10 µM and the IC90 is greater than 10 µM.

On to `Cc1ccc(/N=C/c2cc3ccccc3nc2Sc2ccc(C)cc2)cc1`, for which the IC50 was greater than 10 µM and the IC90 was greater than 10 µM.

Consider `O=C(Nc1ccccc1)C1=C(N2CCOCC2)/C(=C/c2ccc(Br)cc2)CC1`, for which the IC50 was greater than 10 µM and the IC90 is greater than 10 µM.

In the case of `N#C/C(=C\c1ccc(OCc2ccccc2)c(OCc2ccccc2)c1)c1nnc2n1CCCCC2`, the IC50 is greater than 10 µM and the IC90 is greater than 10 µM.

As to `CNC(=O)C(Sc1nnc(Nc2ccc(C(C)C)cc2)s1)C(C)=O` (stereo not given), the IC50 is greater than 10 µM and the IC90 was greater than 10 µM.

Take `Cc1c(C2=CCCCC2)c2ccccn2c1C(=O)c1cc2c(C)nn(-c3ccccc3)c2s1`: the IC50 is greater than 10 µM and the IC90 was greater than 10 µM.

Take `Brc1ccc(/C=N/c2ccccc2N2CCOCC2)cc1`: the half-maximal inhibitory concentration (IC50) is greater than 10 µM and the IC90 was greater than 10 µM.

As for `Cc1cc(NC(=O)C(c2ccc(Cl)cc2)C(C)C)ccc1Br` (stereo not given), the IC50 was greater than 10 µM and the IC90 was greater than 10 µM.

Regarding `CCC(C)(C)c1ccc(Oc2ccc(NC(=O)CSc3cccc[n+]3[O-])cc2)cc1`, the IC50 is greater than 10 µM and the concentration for an effect of 90% (IC90) was greater than 10 µM.

`CCOC(=O)c1ccc(-n2c(C)cc(/C=C(\C#N)c3nc4ccccc4[nH]3)c2C)cc1`: the IC50 is greater than 10 µM and the IC90 was greater than 10 µM.

On to `C(=N\c1nc2ccccc2nc1N1CCOCC1)/N1CCN(C(c2ccccc2)c2ccccc2)CC1`, for which the IC50 was greater than 10 µM and the 90% effect concentration (IC90) is greater than 10 µM.

`O=C(CC12CC3CC(CC(C3)C1)C2)NN=CC1C(=O)N(Cc2ccccc2)C(=O)c2ccccc21` (stereo not given): the IC50 was greater than 10 µM and the IC90 is greater than 10 µM.

With `Fc1cccc(F)c1/C=N/c1ccccc1N1CCOCC1`, the IC50 is greater than 10 µM and the IC90 is greater than 10 µM.

With `c1ccc(-c2csc3nc(-c4ccccn4)nc(NC4CC4)c23)cc1`, the IC50 worked out at 2.32 µM and the IC90 turned out to be 4.93 µM.

As to `N#Cc1ccc(C=C(C(=O)NCc2ccccc2)C(=O)NCc2ccccc2)cc1`, the IC50 was greater than 10 µM and the IC90 was greater than 10 µM.

Consider `O=S(=O)(N=C1c2ccccc2/C(=N/S(=O)(=O)c2ccc(Cl)cc2)C2C3C=CC(CC3)C12)c1ccc(Cl)cc1` (stereo not given), for which the IC50 is 8.44 µM and the IC90 is greater than 10 µM.

For `Cc1c(Cl)cccc1N=C(SCC(=O)N(C)C1CCCCC1)C(C#N)c1nc2ccccc2s1` (stereo not given), the IC50 is greater than 10 µM and the IC90 was greater than 10 µM.

Take `CCC1CCCCN1C(=O)COC(=O)c1cc(C(C)(C)C)cc(C(C)(C)C)c1` (stereo not given): the IC50 is greater than 10 µM and the IC90 is greater than 10 µM.

In the case of `CCN(Cc1ccccc1)S(=O)(=O)c1cc(C(=O)OCc2ccccc2Cl)ccc1OC`, the half-inhibitory concentration (IC50) is greater than 10 µM and the IC90 was greater than 10 µM.

Take `O=C1OC(C23CC4CC(CC(C4)C2)C3)=N/C1=C\c1ccc(N2CCOCC2)cc1`: the IC50 was greater than 10 µM and the IC90 was greater than 10 µM.

On to `Cc1nn(-c2ccccc2)c(Cl)c1/C=N/N1CCN(c2ccc(Cl)cc2)CC1`, for which the IC50 was greater than 10 µM and the IC90 was greater than 10 µM.

Take `O=C1OC(C23CC4CC(CC(C4)C2)C3)=N/C1=C\c1ccc(Cl)c([N+](=O)[O-])c1`: the IC50 is greater than 10 µM and the IC90 was greater than 10 µM.

On to `CN1/C(=C\C=N\NC(=O)c2cnccn2)C(C)(C)c2ccccc21`, for which the IC50 was greater than 10 µM and the IC90 is greater than 10 µM.

On to `CC(=O)c1cc2c(N)c(C(=O)OCc3cccc4ccccc34)sc2nc1C`, for which the IC50 is greater than 10 µM and the IC90 was greater than 10 µM.

As for `C/N=c1\scc(-c2ccc(OC(F)F)cc2)n1/N=C/c1ccccc1[N+](=O)[O-]`, the IC50 is greater than 10 µM and the IC90 was greater than 10 µM.

Regarding `COc1ccc(NCc2csc(-c3ccccc3)n2)cc1Cl`, the IC50 was greater than 10 µM and the IC90 is greater than 10 µM.

As for `Cn1ccnc1/C(=N\NC(=O)c1sc2ccccc2c1Cl)c1cccc([N+](=O)[O-])c1`, the IC50 was greater than 10 µM and the IC90 was greater than 10 µM.

`Cn1c2ccccc2c(=O)c2c(=O)n(CCc3ccccc3)c(-c3ccco3)nc21`: the IC50 was 2.64 µM and the IC90 was found to be 5.38 µM.

For the compound `COc1ccc(C(=O)c2sc(Nc3ccccc3C)c(C(=O)Nc3ccccc3C)c2N)cc1`, the IC50 stood at 5.95 µM and the IC90 was greater than 10 µM.

Consider `c1csc(-c2nnc(Sc3ncnc4sccc34)[nH]2)c1`, for which the IC50 was greater than 10 µM and the IC90 was greater than 10 µM.

As to `Cc1cc(C)c(N/C=C2/C(=O)N(c3ccccc3Cl)C(=O)c3ccccc32)c(C)c1`, the IC50 was greater than 10 µM and the IC90 is greater than 10 µM.

Take `Cc1cc(/C=C(\C#N)c2nc3ccccc3s2)c(C)n1-c1ccc(F)cc1`: the IC50 was greater than 10 µM and the IC90 is greater than 10 µM.

In the case of `Cc1occc1C(=O)N/N=C/C=C1\N(C)c2ccccc2C1(C)C`, the IC50 was greater than 10 µM and the IC90 was greater than 10 µM.

For the compound `COc1ccc(-c2nn(-c3ccccc3)cc2/C=C/C(=O)N2CCc3ccccc32)cc1OC`, the IC50 is greater than 10 µM and the IC90 was greater than 10 µM.

Turning to `COc1ccc(C2CC(c3ccccc3)=NN2C(=O)COc2c(Cl)cc(Cl)c3ccc(C)nc23)cc1` (stereo not given), the IC50 was greater than 10 µM and the IC90 is greater than 10 µM.

As to `COc1ccccc1NC(=S)N/N=C(C)/C=C/C1C(C)=CCCC1(C)C` (stereo not given), the IC50 is greater than 10 µM and the IC90 was greater than 10 µM.

Turning to `CCOC(=O)c1c(C)[nH]c(N=Nc2cccc(C(F)(F)F)c2)c1C`, the IC50 was greater than 10 µM and the IC90 is greater than 10 µM.

For the compound `COc1ccc(NC(=O)c2ccc(C)c(F)c2)cc1OCc1cccnc1`, the IC50 came to 6.13 µM and the concentration for an effect of 90% (IC90) is greater than 10 µM.

In the case of `O=C1/C(=C/Nc2ccccc2O)c2ccccc2C(=O)N1c1ccccc1Cl`, the IC50 was greater than 10 µM and the IC90 is greater than 10 µM.

Turning to `Cc1c(/C=N/N)c2ccccn2c1C#N`, the IC50 was greater than 10 µM and the IC90 is greater than 10 µM.

Take `CCCn1c(NC(=O)c2sc3ccccc3c2Cl)nc2ccccc21`: the IC50 was greater than 10 µM and the IC90 is greater than 10 µM.

`Cc1ccc(-n2c(C)cc(/C=C(\C#N)c3nc4ccccc4s3)c2C)cc1C`: the IC50 is greater than 10 µM and the IC90 is greater than 10 µM.

Consider `COc1ccccc1NCC(=O)N/N=C1/C(=O)Nc2ccc(C(C)C)cc21`, for which the IC50 was greater than 10 µM and the IC90 is greater than 10 µM.

Turning to `FC(F)(F)/C(=N\C1(C(Cl)(Cl)Cl)Oc2ccccc2O1)NCc1ccco1`, the IC50 was greater than 10 µM and the IC90 is greater than 10 µM.

With `Cc1ccc(C(CCNCc2cccs2)c2ccco2)cc1` (stereo not given), the IC50 stood at 1.96 µM and the IC90 came out at 2.72 µM.

One may read the IC50 as the concentration at which inhibition is half-maximal. The term IC90 denotes the concentration at which the effect reaches the 90% level.
